Assay results taken from US8859466B2, “Oxaspirocyclic spiro-substituted tetramic acid and tetronic acid derivatives” (Bayer CropScience AG, priority 2007, dated 2014).

Legend:
[1] = system: cotton aphid (Aphis gossypii); assay: Aphis gossypii test (APHIGO) with ammonium salts and/or penetrants; type: in vivo; details: for % efficacy after 6 days +AMS: +AMS (ammonium sulphate) 1000 ppm; for % efficacy after 6 days +RME: +RME (rapeseed oil methyl ester) 1000 ppm; for % efficacy after 6 days +RME + AMS: each 1000 ppm
Method: Aphis gossypii Test (APHIGO)
Solvents: 7 parts by weight of dimethylformamide
(§1) Emulsifier: 2 parts by weight of alkylaryl polyglycol ether
(§2) To produce a suitable preparation of active compound, 1 part by weight of active compound is mixed with the stated amounts of solvents and emulsifier, and the concentrate is diluted with emulsifier-containing water to the desired concentration. For the required application of ammonium salts, penetrants or ammonium salts and penetrants, these are in each case added with a pipette after dilution of the respective finished solution of the preparation at a concentration of 1000 ppm.
Cotton leaves (Gossypium hirsutum) which are heavily infested by the cotton aphid (Aphis gossypii) are sprayed with an active compound preparation of the desired concentration.
After the desired period of time, the kill in % is determined. 100% means that all aphids have been killed; 0% means that none of the aphids have been killed.

[2] = system: green peach aphid (Myzus persicaei); assay: Myzus persicae test (MYZUPE) with ammonium salts and/or penetrants; type: in vivo; details: for % efficacy after 6 days +AMS: +AMS (ammonium sulphate) 1000 ppm; for % efficacy after 6 days +RME: +RME (rapeseed oil methyl ester) 1000 ppm; for % efficacy after 6 days +RME + AMS: each 1000 ppm
Method: Myzus persicae Test (MYZUPE)
Solvent: 7 parts by weight of dimethylformamide
as §1, §2
Paprika plants (Capsicum annuum) which are heavily infested by the green peach aphid (Myzus persicaei) are treated by being sprayed with the preparation of active compound of the desired concentration.
After the desired period of time, the kill in % is determined. 100% means that all animals have been killed; 0% means that none of the animals have been killed.

Summer wheat = assay: Herbicidal post-emergence action with use of safeners, container trials with cereal in a greenhouse; type: in vivo; details: 28 days after application
Method: (§3) 1. Herbicidal Post-Emergence Action • Seeds of monocotyledonous and dicotyledonous weed and crop plants are placed in sandy loam in wood fibre pots or in plastic pots, covered with soil and cultivated in a greenhouse, during the vegetation period also outdoors outside of the greenhouse, under good growth conditions. 2 to 3 weeks after sowing, the test plants are treated at one- to three-leaf stage. The test compounds, formulated as wettable powders (WP) or liquid (EC) are, at a water application rate of 300 l/ha (converted), with wetting agent (0.2 to 0.3%) added, sprayed at various dosages onto the plants and the surface of the soil. 3 to 4 weeks after treatment of the test plants, the effect of the preparations is rated visually in comparison to untreated controls (herbicidal activity in percent: 100% activity=the plants have died, 0% activity=like control plants).
(§4) Use of Safeners: • If it is additionally to be tested as to whether safeners can improve the plant compatibility of test substances in the case of crop plants, the following options are used for applying the safeners: • seeds of the crop plants are, before sowing, dressed with the safener substance (the amount of safener stated in percent, based on the weight of the seed) • before application of the test substances, the crop plants are sprayed with the safener at a certain application rate per hectare (usually 1 day before the application of the test substances) • the safener is applied together with the test substance as a tank mix (the amount of safener stated in g/ha or as a ratio, based on the herbicide). • Container trials with cereal in a greenhouse • mefenpyr 1 day prior to herbicide application

[3] = Determination of the logP values by HPLC on a reverse-phase column (C 18); type: physicochemical
Method: Determination of the logP Values
The logP values given in the table were determined in accordance with EEC Directive 79/831 Annex V.A8 by HPLC (high performance liquid chromatography) on a reverse-phase column (C 18). Temperature: 55° C.
Mobile phases for the determination in the acidic range (pH 3.4):
Mobile phase A: acetonitrile+1 ml of formic acid/liter. Mobile phase B: water+0.9 ml of formic acid/liter.
Gradient: from 10% mobile phase A/90% mobile phase B to 95% mobile phase A/5% mobile phase B over 4.25 min.
Calibration was carried out using unbranched alkan-2-ones (having 3 to 16 carbon atoms) with known logP values (determination of the logP values by the retention times using linear interpolation between two successive alkanones). The lambda max values were determined in the maxima of the chromatographic signals using the UV spectra from 200 nm to 400 nm.

cereal = assay: Herbicidal post-emergence action with use of safeners, container trials with cereal in a greenhouse (other cereal crop plants); type: in vivo; details: 10 days after application
Method: as §3, §4

[4] = HPLC on a reverse-phase column (C 18), separated α/β isomers

Cc1cc(Cl)cc(C)c1C1=C(O)C2(CCC3(CCCO3)CC2)NC1=O (mixture of isomers) [Example I-1-a-6]
% efficacy after 6 days +AMS ([1]; 20 ppm): 5%
% efficacy after 6 days +RME ([1]; 20 ppm): 60%
% efficacy after 6 days +RME + AMS ([1]; 20 ppm): 95%
% efficacy after 6 days without additive ([1]; 20 ppm): 35%

Cc1cc(Br)cc(C)c1C1=C(O)C2(CCC3(CCCO3)CC2)NC1=O (mixture of isomers) [Example I-1-a-8]
% efficacy after 6 days +AMS ([2]; 0.8 ppm): 0%
% efficacy after 6 days +RME ([2]; 0.8 ppm): 20%
% efficacy after 6 days +RME + AMS ([2]; 0.8 ppm): 99%
% efficacy after 6 days without additive ([2]; 0.8 ppm): 0%
% efficacy after 6 days +AMS ([2]; 4 ppm): 98%
% efficacy after 6 days +RME ([2]; 4 ppm): 99%
% efficacy after 6 days +RME + AMS ([2]; 4 ppm): 100%
% efficacy after 6 days without additive ([2]; 4 ppm): 45%

CCc1cc(Cl)cc(OC)c1C1=C(O)C2(CCC3(CCCO3)CC2)NC1=O (mixture of isomers) [Example I-1-a-11]
Summer wheat observed (%) (Summer wheat; 12.5 g of a.i./ha): 65%
Summer wheat observed (%) (Summer wheat; 25 g of a.i./ha): 70%
Summer wheat observed (%) (Summer wheat; 50 g of a.i./ha): 80%
Summer wheat observed (%) (Summer wheat; 100 g of a.i./ha): 95%

Cc1cc(C2=C(O)C3(CCC4(CCCO4)CC3)OC2=O)c(C)cc1Br (single isomer, unassigned) [Example I-2-a-30]
log P* [3, 4]: 3.28

Cc1cc(C)c(C2=C(O)C3(CCC4(CCCO4)CC3)OC2=O)cc1C (single isomer, unassigned) [Example I-2-a-48]
log P* [3, 4]: 2.99

Cc1ccc(-c2ccc(Cl)cc2)c(C)c1C1=C(OC(=O)C(C)(C)C)C2(CCC3(CCCO3)CC2)OC1=O (centres unmarked) [Example I-2-b-16]
log P* ([3]; compounds of formula (I-2-b)): 6.09

COc1cc(C)cc(Cl)c1C1=C(O)C2(CCC3(CCCO3)CC2)NC1=O (mixture of isomers) [Example I-1-a-13]
Summer barley observed (%) (cereal; 12.5 g of a.i./ha): 20%
Summer barley observed (%) (cereal; 25 g of a.i./ha): 20%
Summer barley observed (%) (cereal; 50 g of a.i./ha): 30%

CCc1cc(Cl)c(C2=C(O)C3(CCC4(CCCO4)CC3)OC2=O)c(Br)c1 (single isomer, unassigned) [Example I-2-a-38]
log P* [3, 4]: 2.79

O=C1OC2(CCC3(CCCO3)CC2)C(O)=C1c1cc(-c2ccc(Cl)cc2)ccc1Cl (centres unmarked) [Example I-2-a-20]
log P* [3, 4]: 3.25

CC(C)C(=O)OC1=C(c2cc(-c3ccc(Cl)cc3)ccc2Cl)C(=O)OC12CCC1(CCCO1)CC2 (centres unmarked) [Example I-2-b-12]
log P* ([3]; compounds of formula (I-2-b)): 5.26

CCc1cc(Cl)cc(CC)c1C1=C(O)C2(CCC3(CCCO3)CC2)OC1=O (single isomer, unassigned) [Example I-2-a-8]
log P* [3, 4]: 3.09

CCOC(=O)OC1=C(c2c(C)cc(C)cc2C)C(=O)O[C@]12CC[C@]1(CCCO1)CC2 [Example I-2-c-1]
chromatographic logP ([3]; reverse-phase HPLC column (C 18), HPLC, reverse-phase C 18, acidic range (pH 3.4), 55° C., read-out: log P): 4.09

CCc1cc(C)cc(CC)c1C1=C(O)C2(CCC3(CCCO3)CC2)OC1=O (single isomer, unassigned) [Example I-2-a-16]
log P* [3, 4]: 2.99

Cc1cc(C)c(-c2ccc(Cl)cc2)cc1C1=C(O)C2(CCC3(CCCO3)CC2)OC1=O (centres unmarked) [Example I-2-a-27]
log P* [3, 4]: 3.60

CCc1cc(Cl)cc(CC)c1C1=C(O)C2(CCC3(CCCO3)CC2)OC1=O (single isomer, unassigned) [Example I-2-a-9]
log P* [3, 4]: 3.62

CCc1cc(C)cc(CC)c1C1=C(O)C2(CCC3(CCCO3)CC2)OC1=O (single isomer, unassigned) [Example I-2-a-17]
log P* [3, 4]: 3.47

Cc1cc(C)c(C2=C(OC(=O)C(C)(C)C)C3(CCC4(CCCO4)CC3)OC2=O)c(C)c1 (centres unmarked) [Example I-2-b-17]
log P* ([3]; compounds of formula (I-2-b)): 5.58

CCc1cc(C)cc(C)c1C1=C(O)C2(CCC3(CCCO3)CC2)OC1=O (single isomer, unassigned) [Example I-2-a-14]
log P* [3, 4]: 2.73

Cc1cc(C)c(C2=C(OC(=O)C(C)C)C3(CCC4(CCCO4)CC3)OC2=O)c(C)c1 (centres unmarked) [Example I-2-b-7]
log P* ([3]; compounds of formula (I-2-b)): 4.52

Cc1ccc(-c2ccc(Cl)cc2)c(C)c1C1=C(O)C2(CCC3(CCCO3)CC2)OC1=O (centres unmarked) [Example I-2-a-18]
log P* [3, 4]: 3.52

Cc1cc(C)c(C2=C(O)C3(CCC4(CCCO4)CC3)NC2=O)c(C)c1 (mixture of isomers) [Example I-1-a-4]
% efficacy after 6 days +AMS ([1]; 0.8 ppm): 0%
% efficacy after 6 days +RME ([1]; 0.8 ppm): 15%
% efficacy after 6 days +RME + AMS ([1]; 0.8 ppm): 45%
% efficacy after 6 days without additive ([1]; 0.8 ppm): 10%
% efficacy after 6 days +AMS ([1]; 4 ppm): 75%
% efficacy after 6 days +RME ([1]; 4 ppm): 75%
% efficacy after 6 days +RME + AMS ([1]; 4 ppm): 80%
% efficacy after 6 days without additive ([1]; 4 ppm): 60%
% efficacy after 6 days +AMS ([2]; 0.8 ppm): 0%
% efficacy after 6 days +RME ([2]; 0.8 ppm): 60%
% efficacy after 6 days +RME + AMS ([2]; 0.8 ppm): 99%
% efficacy after 6 days without additive ([2]; 0.8 ppm): 10%
% efficacy after 6 days +AMS ([2]; 4 ppm): 80%
% efficacy after 6 days +RME ([2]; 4 ppm): 90%
% efficacy after 6 days +RME + AMS ([2]; 4 ppm): 98%
% efficacy after 6 days without additive ([2]; 4 ppm): 75%

Cc1cc(C)c(C2=C(OC(=O)C(C)(C)C)C3(CCC4(CCCO4)CC3)OC2=O)c(C)c1 (centres unmarked) [Example I-2-b-14]
log P* ([3]; compounds of formula (I-2-b)): 4.96

Cc1ccc(-c2ccc(F)cc2)c(C)c1C1=C(O)C2(CCC3(CCCO3)CC2)OC1=O (centres unmarked) [Example I-2-a-46]
log P* [3, 4]: 3.69
